Results as given in ChEMBL document CHEMBL2331203, “Optimization of inhibitors of the tyrosine kinase EphB4. 2. Cellular potency improvement and binding mode validation by X-ray crystallography” (J Med Chem, 2013).

Assays:
[1] = target: Tyrosine-protein kinase Lck (Homo sapiens, UniProt P06239); assay: Inhibition of Lck (unknown origin) using [gamma-33P]ATP after 30 mins by radiometric assay
[2] = target: T1, Ephrin type-B receptor 3 (Homo sapiens) (UniProt P54753); assay: Inhibition of human Eph-B3 using [gamma-33P]ATP assessed as residual activity at 3 uM after 30 mins by radiometric assay
T1 sequence (whole entry): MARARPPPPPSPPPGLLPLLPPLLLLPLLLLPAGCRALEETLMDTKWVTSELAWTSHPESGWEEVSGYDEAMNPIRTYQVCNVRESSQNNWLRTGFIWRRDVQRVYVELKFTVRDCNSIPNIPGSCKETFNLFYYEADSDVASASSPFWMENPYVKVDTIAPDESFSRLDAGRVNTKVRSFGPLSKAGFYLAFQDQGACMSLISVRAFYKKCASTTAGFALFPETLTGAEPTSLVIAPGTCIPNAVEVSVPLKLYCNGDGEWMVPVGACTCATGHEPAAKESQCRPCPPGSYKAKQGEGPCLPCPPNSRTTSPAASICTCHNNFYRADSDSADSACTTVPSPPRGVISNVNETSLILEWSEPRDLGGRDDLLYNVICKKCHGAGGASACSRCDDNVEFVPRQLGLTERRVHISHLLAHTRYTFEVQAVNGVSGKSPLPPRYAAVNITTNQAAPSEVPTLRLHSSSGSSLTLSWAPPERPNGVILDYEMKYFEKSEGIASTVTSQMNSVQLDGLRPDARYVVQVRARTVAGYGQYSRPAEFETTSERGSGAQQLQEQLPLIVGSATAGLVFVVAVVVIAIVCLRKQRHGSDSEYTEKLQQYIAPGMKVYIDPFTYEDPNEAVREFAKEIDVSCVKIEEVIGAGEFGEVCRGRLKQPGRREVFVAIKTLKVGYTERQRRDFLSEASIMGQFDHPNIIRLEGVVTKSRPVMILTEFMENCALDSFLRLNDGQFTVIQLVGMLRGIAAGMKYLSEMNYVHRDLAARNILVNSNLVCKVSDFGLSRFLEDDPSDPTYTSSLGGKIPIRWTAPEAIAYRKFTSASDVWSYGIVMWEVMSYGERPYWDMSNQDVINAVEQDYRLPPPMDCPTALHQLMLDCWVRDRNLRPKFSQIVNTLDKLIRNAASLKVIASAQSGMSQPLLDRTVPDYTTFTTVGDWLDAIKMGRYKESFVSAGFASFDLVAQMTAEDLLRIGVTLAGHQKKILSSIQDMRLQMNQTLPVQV

[3] = target: Ephrin type-A receptor 2 (Homo sapiens) (UniProt P29317); assay: Inhibition of human Eph-A2 using [gamma-33P]ATP assessed as residual activity at 3 uM after 30 mins by radiometric assay
Chain of Ephrin type-A receptor 2 (Homo sapiens) (P29317 whole entry): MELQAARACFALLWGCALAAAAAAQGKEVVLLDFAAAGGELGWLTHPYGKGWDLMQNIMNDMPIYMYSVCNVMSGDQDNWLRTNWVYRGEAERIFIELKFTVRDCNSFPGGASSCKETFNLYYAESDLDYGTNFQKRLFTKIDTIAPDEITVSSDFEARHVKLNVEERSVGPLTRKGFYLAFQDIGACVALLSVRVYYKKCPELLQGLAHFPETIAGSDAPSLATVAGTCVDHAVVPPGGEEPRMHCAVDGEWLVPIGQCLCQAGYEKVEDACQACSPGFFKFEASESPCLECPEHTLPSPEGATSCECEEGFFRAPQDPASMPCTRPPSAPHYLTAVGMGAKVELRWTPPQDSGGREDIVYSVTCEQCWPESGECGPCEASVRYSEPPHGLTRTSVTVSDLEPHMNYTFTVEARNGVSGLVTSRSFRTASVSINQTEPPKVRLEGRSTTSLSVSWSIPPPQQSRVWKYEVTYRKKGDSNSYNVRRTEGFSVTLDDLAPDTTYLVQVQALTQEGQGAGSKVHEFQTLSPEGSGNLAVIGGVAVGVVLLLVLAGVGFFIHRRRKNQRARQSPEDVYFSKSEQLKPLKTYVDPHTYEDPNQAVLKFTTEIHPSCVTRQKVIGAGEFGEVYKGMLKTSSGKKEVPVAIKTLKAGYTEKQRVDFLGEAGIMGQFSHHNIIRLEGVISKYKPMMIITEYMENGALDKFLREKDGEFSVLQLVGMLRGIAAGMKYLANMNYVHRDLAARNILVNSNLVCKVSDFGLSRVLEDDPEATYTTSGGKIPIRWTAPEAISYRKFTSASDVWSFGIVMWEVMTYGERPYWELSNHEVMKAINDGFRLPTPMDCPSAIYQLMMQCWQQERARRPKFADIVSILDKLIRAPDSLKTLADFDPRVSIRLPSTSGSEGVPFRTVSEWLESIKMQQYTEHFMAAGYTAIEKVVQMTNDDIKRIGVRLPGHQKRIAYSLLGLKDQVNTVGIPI

[4] = target: Proto-oncogene tyrosine-protein kinase Src (Homo sapiens, UniProt P12931)
Chain of Proto-oncogene tyrosine-protein kinase Src (P12931 2-536 limits assumed): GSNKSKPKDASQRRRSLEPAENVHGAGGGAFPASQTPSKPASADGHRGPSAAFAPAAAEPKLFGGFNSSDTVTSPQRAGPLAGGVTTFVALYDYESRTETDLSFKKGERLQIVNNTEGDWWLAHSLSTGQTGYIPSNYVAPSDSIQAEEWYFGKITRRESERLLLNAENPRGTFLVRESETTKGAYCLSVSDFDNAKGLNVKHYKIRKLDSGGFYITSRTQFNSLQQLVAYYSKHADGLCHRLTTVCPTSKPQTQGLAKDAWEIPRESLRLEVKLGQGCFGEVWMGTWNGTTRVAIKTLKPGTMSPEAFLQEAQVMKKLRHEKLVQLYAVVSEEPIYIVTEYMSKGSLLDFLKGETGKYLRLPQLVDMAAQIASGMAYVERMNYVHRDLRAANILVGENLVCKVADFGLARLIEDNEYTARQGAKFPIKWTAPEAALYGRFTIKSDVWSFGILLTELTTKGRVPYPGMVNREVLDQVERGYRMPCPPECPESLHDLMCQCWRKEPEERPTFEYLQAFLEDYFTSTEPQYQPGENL
Description: Inhibition of Src (unknown origin) using [gamma-33P]ATP after 30 mins by radiometric assay

[5] = Cytotoxicity against human LXFA 983L cells after 4 days by propidium iodide staining; settings: 96 h
[6] = target: Tyrosine-protein kinase Yes (Homo sapiens, UniProt P07947); assay: Inhibition of Yes1 (unknown origin) using [gamma-33P]ATP after 30 mins by radiometric assay
Chain of Tyrosine-protein kinase Yes (P07947 whole entry): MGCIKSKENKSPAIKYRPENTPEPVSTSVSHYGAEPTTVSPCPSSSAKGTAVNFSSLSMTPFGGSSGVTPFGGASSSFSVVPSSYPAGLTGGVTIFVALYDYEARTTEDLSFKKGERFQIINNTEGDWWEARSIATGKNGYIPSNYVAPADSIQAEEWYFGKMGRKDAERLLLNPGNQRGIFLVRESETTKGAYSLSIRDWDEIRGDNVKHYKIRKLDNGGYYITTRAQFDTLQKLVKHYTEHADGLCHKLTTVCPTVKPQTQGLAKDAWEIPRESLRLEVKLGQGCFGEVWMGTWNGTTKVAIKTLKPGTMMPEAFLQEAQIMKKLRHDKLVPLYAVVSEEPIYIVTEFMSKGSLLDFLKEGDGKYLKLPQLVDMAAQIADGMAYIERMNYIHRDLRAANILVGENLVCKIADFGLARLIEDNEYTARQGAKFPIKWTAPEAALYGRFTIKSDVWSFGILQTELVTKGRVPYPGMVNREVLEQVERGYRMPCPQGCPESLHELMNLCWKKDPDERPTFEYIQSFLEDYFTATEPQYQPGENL

[7] = Permeability from basolateral to apical side in human Caco2 cells assessed as compound recovery after 2 hrs by LC-MS/MS analysis; assay type: ADME, cell-based; settings: Caco-2, read-out: permeability
DU-145 = assay: Cytotoxicity against human PRXF DU145 cells after 4 days by propidium iodide staining; settings: DU-145, 96 h
[8] = Apparent permeability from apical to basolateral side in human Caco2 cells after 2 hrs by LC-MS/MS analysis; assay type: ADME, cell-based; settings: Caco-2
Ephrin type-B receptor 4 = target: T2, Ephrin type-B receptor 4 (Homo sapiens, UniProt P54760)
T2 sequence (P54760 whole entry): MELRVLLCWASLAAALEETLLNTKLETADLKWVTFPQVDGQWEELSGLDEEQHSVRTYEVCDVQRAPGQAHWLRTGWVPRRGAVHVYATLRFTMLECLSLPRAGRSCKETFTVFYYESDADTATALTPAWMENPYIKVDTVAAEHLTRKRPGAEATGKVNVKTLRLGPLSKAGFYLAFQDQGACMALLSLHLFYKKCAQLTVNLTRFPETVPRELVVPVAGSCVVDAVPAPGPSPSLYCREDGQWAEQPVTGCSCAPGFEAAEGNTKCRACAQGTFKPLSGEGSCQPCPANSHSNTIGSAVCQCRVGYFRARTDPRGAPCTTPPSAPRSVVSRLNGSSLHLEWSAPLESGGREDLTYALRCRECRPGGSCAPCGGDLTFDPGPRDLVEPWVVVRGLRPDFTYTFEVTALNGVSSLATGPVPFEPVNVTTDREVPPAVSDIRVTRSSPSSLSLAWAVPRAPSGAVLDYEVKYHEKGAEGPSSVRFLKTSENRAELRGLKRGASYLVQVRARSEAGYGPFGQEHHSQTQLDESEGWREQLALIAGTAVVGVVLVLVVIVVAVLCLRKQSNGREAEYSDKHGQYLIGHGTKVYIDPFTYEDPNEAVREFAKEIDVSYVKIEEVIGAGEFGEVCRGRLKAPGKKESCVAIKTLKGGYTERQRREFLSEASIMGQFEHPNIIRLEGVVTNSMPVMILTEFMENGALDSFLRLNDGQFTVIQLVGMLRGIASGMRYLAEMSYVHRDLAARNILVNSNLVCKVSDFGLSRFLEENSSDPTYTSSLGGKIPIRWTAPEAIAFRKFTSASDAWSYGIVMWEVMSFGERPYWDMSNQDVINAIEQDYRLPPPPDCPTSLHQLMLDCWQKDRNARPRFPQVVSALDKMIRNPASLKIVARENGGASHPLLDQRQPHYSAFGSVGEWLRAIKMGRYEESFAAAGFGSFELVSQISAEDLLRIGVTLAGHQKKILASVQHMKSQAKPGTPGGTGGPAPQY
Description: Inhibition of human myc-tagged full length EphB4 expressed in MEF cells assessed as inhibition of ephrinB2-Fc-induced autophosphorylation incubated for 90 mins prior to ephrinB2-Fc-induction measured after 2 hrs by sandwich ELISA

[9] = Cytotoxicity against human PAXF 1657L cells after 4 days by propidium iodide staining; settings: 96 h

Chain of Tyrosine-protein kinase Lck (P06239 whole entry): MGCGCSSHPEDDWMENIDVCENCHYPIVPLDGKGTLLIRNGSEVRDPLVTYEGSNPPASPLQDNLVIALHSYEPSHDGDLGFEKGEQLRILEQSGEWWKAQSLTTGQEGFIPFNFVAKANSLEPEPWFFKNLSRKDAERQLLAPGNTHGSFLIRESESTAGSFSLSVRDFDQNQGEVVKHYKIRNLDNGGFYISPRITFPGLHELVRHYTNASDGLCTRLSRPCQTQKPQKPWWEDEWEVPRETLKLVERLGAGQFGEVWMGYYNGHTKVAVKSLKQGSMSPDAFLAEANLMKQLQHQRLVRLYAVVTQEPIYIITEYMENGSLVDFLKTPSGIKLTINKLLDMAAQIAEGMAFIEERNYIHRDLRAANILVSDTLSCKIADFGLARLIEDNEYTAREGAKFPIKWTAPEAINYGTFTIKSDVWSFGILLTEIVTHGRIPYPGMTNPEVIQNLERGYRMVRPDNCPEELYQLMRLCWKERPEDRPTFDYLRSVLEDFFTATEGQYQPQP

For `CCCCn1c(-c2ccccc2C)cn2c3c(=O)[nH]c(=O)n(C)c3nc12`, the IC50 [1] was 493 nM, the Activity [2] was 13% and the Activity [3] was 6%. The IC50 [4] was 71 nM, the IC50 [5] was 5450 nM and the IC50 [6] was 284 nM. The recovery at 2 h [7] was 89%, the IC50 (DU-145) was 11200 nM and the Papp A→B at 2 h [8] was 42.7 ×10⁻⁶ cm/s. It also gave an IC50 (Ephrin type-B receptor 4) of 50 nM and an IC50 [9] of 8100 nM.
